Measurements from patent publication US20220395487A1, “RIG-I INNATE IMMUNE RECEPTOR ANTAGONISTS AND METHODS OF USING SAME” (YALE UNIVERSITY, priority 2019, published 2022).

Columns and labels:
RIG-I [1] = target: T1, RIG-I (Homo sapiens, UniProt O95786); experiment: IFN-β/Firefly dual-luciferase reporter assay in HEK 293T cells transfected with hRIG-I; format: cell-based; settings: HEK293T cells, SLR14 challenge
T1 sequence (O95786 1-925): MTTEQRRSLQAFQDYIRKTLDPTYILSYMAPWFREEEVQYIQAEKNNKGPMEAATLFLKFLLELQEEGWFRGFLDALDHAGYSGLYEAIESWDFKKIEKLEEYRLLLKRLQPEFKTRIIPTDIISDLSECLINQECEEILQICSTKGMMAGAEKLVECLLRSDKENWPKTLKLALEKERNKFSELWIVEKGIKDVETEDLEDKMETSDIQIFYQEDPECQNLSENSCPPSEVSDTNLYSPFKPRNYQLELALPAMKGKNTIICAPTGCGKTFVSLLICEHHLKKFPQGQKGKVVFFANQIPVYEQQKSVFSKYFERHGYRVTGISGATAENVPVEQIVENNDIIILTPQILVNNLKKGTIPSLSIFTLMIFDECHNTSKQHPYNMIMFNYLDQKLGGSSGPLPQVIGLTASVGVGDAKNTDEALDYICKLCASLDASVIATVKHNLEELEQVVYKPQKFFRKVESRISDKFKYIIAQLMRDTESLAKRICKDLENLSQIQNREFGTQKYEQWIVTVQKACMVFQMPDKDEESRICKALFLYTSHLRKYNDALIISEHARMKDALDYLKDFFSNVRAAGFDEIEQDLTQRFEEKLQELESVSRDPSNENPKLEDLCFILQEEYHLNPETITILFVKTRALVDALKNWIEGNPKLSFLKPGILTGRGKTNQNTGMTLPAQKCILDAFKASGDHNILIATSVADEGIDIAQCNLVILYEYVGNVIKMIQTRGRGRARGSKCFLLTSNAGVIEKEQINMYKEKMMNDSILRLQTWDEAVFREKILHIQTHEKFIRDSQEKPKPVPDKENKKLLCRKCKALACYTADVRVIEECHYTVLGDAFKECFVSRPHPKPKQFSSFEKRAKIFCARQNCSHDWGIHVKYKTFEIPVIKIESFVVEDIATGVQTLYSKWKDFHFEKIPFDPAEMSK
Procedure: Two different assays were used for evaluating RIG-I inhibition in cells. In the first assay, HEK 293T cells were used to test the influence of compounds on RIG-I signaling activity while simultaneously reporting on relative toxicity. In this case, inhibitor compounds were introduced via growth media replacement rather than by direct addition to cell plates. Specifically, HEK 293T cells (which express RIG-I only under the control of a transfected plasmid) were grown and maintained in T75 flasks containing Dulbecco's Modified Eagle Medium, DMEM (Life Technologies) supplemented with 10% heat-inactivated fetal bovine serum (Hyclone) and non-essential amino acids (Life Technologies). For the IFN-β induction assays, 0.5 ml of cells at 65,000 cells/ml was placed (seeded) in 24-well plates. After 24 h, each well of cells was transfected with 5 ng WT pUNO-hRIG-I (Invivogen), 6 ng pRL-TK constitutive Renilla luciferase reporter plasmid (Promega) and 150 ng of an IFN-β/Firefly luciferase reporter plasmid using the Lipofectamine 2000 transfection reagent (Life Technologies) following the manufacturer's protocol. Protein expression was allowed to proceed for 24 hours. In parallel, a six-point dilution series of each compound of interest was made in a DMSO vehicle and then diluted further into DMEM such that a constant DMSO concentration of 1% is maintained over the entire drug dilution. The DMEM growth media was aspirated from each well of cells and replaced with DMEM that contains the drug. After 30 minutes, the cells were challenged by transfection with 1 μg of the synthetic stem-loop RNA (SLR14) in Lipofectamine 2000. After 5-6 hours, cells were harvested for luminescence analysis in the following manner: Growth media was aspirated from each well, and 100 μl of passive lysis buffer (Promega) was added. Lysis proceeded for 15 min at room temperature. Lysates were clarified by centrifugation, and 20 μl samples of the supernatant were transferred to a 96-well assay plate for analysis using the Dual-Luciferase Reporter Assay System (Promega). Luminescence was measured using a Biotek Synergy H1 plate reader. The resulting Firefly luciferase activity (i.e. the induction of IFN-0) was normalized to the activity of the constitutively expressed Renilla luciferase to account for differences in confluency, transfection efficiency and cell viability across sample wells.

RIG-I [2] = target: T1, RIG-I; experiment: Absorbance titration of compound with RIG-I protein; format: binding; set-up: The native, full-length protein was expressed and purified using methods adapted from published protocols; SUMO (pET-SUMO vector; captured on Ni-NTA) (N, cleaved yes); made in house; host or cells: Rosetta II(DE3) Escherichia coli
Procedure: FIG. 1A illustrates the structure of RIG-I ΔCARDs bound to a 14 base pair RNA duplex with ADP▪BeF3 (PDBID:5E3H). FIG. 1B illustrates representative IC50 curves for active compounds. Relative activity of a compound was calculated as a fraction of “no inhibitor” measurement and plotted vs. inhibitor concentration. Each data point represents a mean of n=3 determinations±the standard deviation. FIG. 1C illustrates a representative absorption titration spectra of RIG012 binding to RIG-I. Protein concentrations are indicated in figure legend. (Inset) Stoichiometry of RIG-I binding. Fraction bound (A) is plotted against fractional change in RIG-I concentration (ΔRIG-I). Slope=0.95±0.06. […]
Although IC50 values provide a valuable metric of association for enzyme inhibitors, it was of interest to determine directly whether the lead compound, RIG012, binds to the RIG-I protein. Binding studies were facilitated by the fact that RIG012 contains a strong chromophore that absorbs in the visible range (λmax of 470 nm), making it possible to conduct classical absorbance titrations of the compound with increasing amounts of RIG-I. Upon binding to RIG-I, the 470 nm absorbance band of RIG012 undergoes a dramatic hyperchromic shift to higher intensity values, and the magnitude of this shift is proportional to the relative fraction of bound small molecule (FIG. 1C). […]

For `CCC1(CC)C(=O)N=C2C1=C(OCc1ccccc1)C(=O)c1ccccc12` [RIG012, 4-Benzyloxy-3,3-diethyl-2H,3H,5H-benzo[g]indole-2,5-dione], the “inhibition of RIG-I signaling / IFN induction, result in words” value (RIG-I [1]) was “potent, dose-dependent inhibition of RIG-I signaling”, the IC50 (RIG-I [1]; compound in growth medium, read-out: IC50, inhibition of RIG-I signaling (IFN induction luciferase)) was 1250 nM and the “slope of fraction bound vs fractional change in RIG-I concentration (stoichiometry of RIG-I binding)” value (RIG-I [2]; absorbance titration at 470 nm, two independent experiments ± SD) was 0.95±0.06. For the same molecule, the “stoichiometry of compound:RIG-I complex” value (RIG-I [2]; absorbance titration, stoichiometric binding regime) was 1:1 complex.
